Assay results: patent US11213516B2, “Intravaginally applicable devices comprising antiviral compounds” (AICURIS ANTI-INFECTIVE CURES GMBH, priority 2017, dated 2022)
Values joined by “and” are separate entries in the source; they are usually repeats but may differ in a detail not shown here. Identical values can stand only once. Like-named read-outs stand apart in the source and are kept apart here. Marks after values point to notes of the source that are not given here.

Assay: Plasma concentration after intravaginal administration of vaginal ring
Format: in vivo, Cynomolgus monkeys
Method: The study was performed in four single dose phases with 28-day sampling period after Phases 1 and 2 (7-day washout period between doses). Vaginal rings were investigated for Pritelivir free base and Pritelivir mesylate salt at two dose levels per formulation. The test items were applied as vaginal ring in Phases 1 and 2 to female monkeys. The study design is below in the Table 3.
Venous blood samples were taken from all animals at the following times in relation to dosing.
• Blood sample site Femoral site • Blood volume 1.0 mL • Anticoagulant For phase 1 samples, Day 1-3 only, blood was sampled into standard HLS vials containing lithium heparin and 20 μL aqueous phosphoric acid (3.5 molar). Thereafter, blood was collected into tubes containing lithium heparin only. Plasma was obtained from all samples by centrifugation. Samples were appropriately labeled and stored deep frozen (−20° C. or below) until analysis • Total no. of blood samples 350 Vaginal Fluid Sampling
After suitable dilution, plasma and vaginal samples were analyzed on UPLC system Waters Acquity UPLC-HSS PFP column with 1.8 μm particles (100×2.1 mm) by gradient elution using 0.1% formic acid and methanol containing 0.1% formic acid. For detection, a time-of-flight mass spectrometer (Xevo GS-2 QTOF, Waters) was used operating in positive ionization mode (MSe analysis). The samples were analyzed for their content of Pritelivir free base.
The study was designed to obtain information on the time-course of unchanged test compound concentrations in plasma and vaginal fluid/tissue, following single intravaginal administration of rings to female Cynomolgus monkeys. Objectives of this study were to determine the safety and tolerance of Pritelivir loaded rings, as well as systemic and local exposure (plasma, vaginal fluid and vaginal and vulval tissue, respectively). Local exposures were compared with in vitro efficacy data of Pritelivir to get an idea on initial pharmacokinetic/pharmacodynamic (PK/PD) parameters for vaginal rings, i.e. to assess the potential ability of a Pritelivir loaded ring to suppress viral replication in the target tissue. Table 9 gives an overview on the EC50 values of Pritelivir on HSV-1 and HSV-2 Data source: Field, H. J., et al., Baseline sensitivity of HSV-1 and HSV-2 clinical isolates and defined acyclovir-resistant strains to the helicase-primase inhibitor pritelivir. Antiviral Res, 2013. 100(2): p. 297-9. EC50=50% effective concentration.

[1] = female, cynomolgus monkey, plasma, other: intravaginal (vaginal ring), 40 mg, ring 40 mg free base, Phase 1 Group 1, group mean, read-out: Plasma concentration of Pritelivir free base, Mean
[2] = female, cynomolgus monkey, plasma, other: intravaginal (vaginal ring), 40 mg, ring 40 mg free base, Phase 1 Group 1, individual animals, read-out: Plasma concentration of Pritelivir free base
[3] = female, cynomolgus monkey, plasma, other: intravaginal (vaginal ring), 240 mg, ring 240 mg free base, Phase 2 Group 1, individual animals, read-out: Plasma concentration of Pritelivir free base

Structure (SMILES): Cc1nc(N(C)C(=O)Cc2ccc(-c3ccccn3)cc2)sc1S(N)(=O)=O [Pritelivir free base]
- All plasma concentrations of Pritelivir (Phases 1 and 2, up to 28 Days, all rings): < 132 nM and < 54 μg/L
- concentration at 0.0417 d (female, cynomolgus monkey, plasma, other: intravaginal (vaginal ring), 40 mg, ring 40 mg free base, Phase 1 Group 1, 0.0417 d, group mean, read-out: Plasma concentration of Pritelivir free base, Mean): 3.43 ng/mL
- concentration at 0.0417 d (female, cynomolgus monkey, plasma, other: intravaginal (vaginal ring), 40 mg, ring 40 mg free base, Phase 1 Group 1, 0.0417 d, individual animals, read-out: Plasma concentration of Pritelivir free base): 2.44 ng/mL
- concentration at 0.167 d (female, cynomolgus monkey, plasma, other: intravaginal (vaginal ring), 40 mg, ring 40 mg free base, Phase 1 Group 1, 0.167 d, group mean, read-out: Plasma concentration of Pritelivir free base, Mean): 5.61 ng/mL
- concentration at 0.167 d (female, cynomolgus monkey, plasma, other: intravaginal (vaginal ring), 40 mg, ring 40 mg free base, Phase 1 Group 1, 0.167 d, individual animals, read-out: Plasma concentration of Pritelivir free base): 2.38 ng/mL
- concentration at 0.333 d [1]: 6.4 ng/mL
- concentration at 0.333 d [2]: 2.22 ng/mL
- concentration at 4 d [1]: 3.86 ng/mL
- concentration at 4 d [2]: 3.21 ng/mL
- concentration at 7 d [1]: 3.66 ng/mL
- concentration at 7 d [2]: 3.55 ng/mL
- concentration at 10 d [1]: 3.36 ng/mL
- concentration at 10 d [2]: 3.92 ng/mL
- concentration at 14 d [1]: 3.31 ng/mL
- concentration at 14 d [2]: 2.81 ng/mL
- concentration at 17 d [1]: 3.2 ng/mL
- concentration at 17 d [2]: 2.64 ng/mL
- concentration at 21 d [1]: 2.91 ng/mL
- concentration at 21 d [2]: 3 ng/mL
- concentration at 24 d [1]: 2.99 ng/mL
- concentration at 24 d [2]: 3.21 ng/mL
- concentration at 28 d [1]: 2.79 ng/mL
- concentration at 28 d [2]: 2.6 ng/mL
- concentration at 0.0833 d (female, cynomolgus monkey, plasma, other: intravaginal (vaginal ring), 240 mg, ring 240 mg free base, Phase 2 Group 1, 0.0833 d, group mean, read-out: Plasma concentration of Pritelivir free base, Mean): 3.68 ng/mL
- concentration at 0.0833 d (female, cynomolgus monkey, plasma, other: intravaginal (vaginal ring), 240 mg, ring 240 mg free base, Phase 2 Group 1, 0.0833 d, individual animals, read-out: Plasma concentration of Pritelivir free base): 4.41 ng/mL
- concentration at 0.167 d (female, cynomolgus monkey, plasma, other: intravaginal (vaginal ring), 240 mg, ring 240 mg free base, Phase 2 Group 1, 0.167 d, group mean, read-out: Plasma concentration of Pritelivir free base, Mean): 4.58 ng/mL
- concentration at 0.333 d (female, cynomolgus monkey, plasma, other: intravaginal (vaginal ring), 240 mg, ring 240 mg free base, Phase 2 Group 1, group mean, read-out: Plasma concentration of Pritelivir free base, Mean): 5.87 ng/mL
- concentration at 3 d (female, cynomolgus monkey, plasma, other: intravaginal (vaginal ring), 240 mg, ring 240 mg free base, Phase 2 Group 1, 3 d, individual animals, read-out: Plasma concentration of Pritelivir free base): 26.8 ng/mL
- concentration at 4 d [3]: 26 ng/mL
- concentration at 7 d [3]: 16.4 ng/mL
- concentration at 10 d [3]: 9.46 ng/mL
- concentration at 14 d [3]: 9.48 ng/mL
- concentration at 17 d [3]: 10.8 ng/mL
- concentration at 21 d [3]: 7.78 ng/mL
- concentration at 24 d [3]: 9.71 ng/mL
- concentration at 28 d [3]: 12.7 ng/mL
- Plasma concentration of Pritelivir free base (ring 40 mg free base, Phase 1 Group 1, 0 d (pre-dose), individual animals): 2.70 ^a μg/L
- Plasma concentration of Pritelivir free base (ring 40 mg free base, Phase 1 Group 1, 0.0417 d, individual animals): 4.73 ^ μg/L and 3.11 ^a μg/L
- Plasma concentration of Pritelivir free base, Mean (ring 40 mg free base, Phase 1 Group 1, 0.0833 d, group mean): 5.28 ^ μg/L
- Plasma concentration of Pritelivir free base (ring 40 mg free base, Phase 1 Group 1, 0.0833 d, individual animals): 6.03 ^ μg/L and 4.53 ^ μg/L
- Plasma concentration of Pritelivir free base (ring 40 mg free base, Phase 1 Group 1, 0.167 d, individual animals): 6.90 ^ μg/L and 7.56 ^ μg/L
